Reference: patent EP4029502A1, “PYRAZOLINE-DERIVED COMPOUND (ENFLICOXIB) FOR USE IN THE PREVENTION AND/OR TREATMENT OF PAIN AND INFLAMMATION ASSOCIATED TO SURGERY IN MAMMALS” (Ecuphar N.V., priority 2021, dated 2022)
Where two headings read alike, the source gives them in different places.

Tests used:
[1] = tested on: dogs undergoing soft tissue surgery; type: in vivo; design: Vocalization (SFGCMPS average value) / Attention to wound (SFGCMPS average value) / Mobility (SFGCMPS average value) / Demeanour (SFGCMPS average value) / Posture/Activity (SFGCMPS average value) / Total SFGCMPS (average value): scale not given here
Text: The study was a single centre, prospective, parallel-controlled, randomized and blinded pilot field trial with a negative (Placebo) control to evaluate the efficacy of E-6087 in dogs undergoing elective soft tissue surgery.
Twenty dogs (17 females and 3 males) were included in the study. Dogs were of different breeds or crossbreed, ages from 3 months to 7 years and weights from 4 to 34 kg. All dogs were clinically healthy other than the condition causing the animal to go under surgery.
Two days before surgery animals were weighed, a detailed physical examination was performed, and blood samples were collected for routine haematology and biochemistry to confirm the good health status of the animals before inclusion.
Dogs were randomly allocated to receive either E-6087 or Placebo as oral tablets. E-6087 and Placebo tablets were similar (same appearance and packaging), therefore treatment administration, clinical examinations and blood sample analysis was always blind.
E-6087 was administered at the dose of 8 mg/kg on day D-1, approximately 24h before surgery scheduled time, before the first meal of the day. Placebo tablets were administered following the same posology.
Surgeries were performed in the morning, on day D0 by the Investigator (Surgeon). All surgeries were performed under the same anaesthesia protocol. Premedication was performed with medetomidine and morphine both at 0.1 ml/10 kg followed by anaesthesia maintained with Tiletamine/Zolazepam (Zoletil®). Local anaesthesia was not permitted. At the end of surgery, antibiotic therapy was administered to all dogs following the post-operative protocol stablished: amoxicillin (trihydrate) at 15 mg of amoxicillin/kg bw in a single dose.
Clinical assessments of postoperative pain and inflammation were done by the Investigator (Examining Veterinarian) using the SFGCMPS (13). Visual Analog Scales (VAS) were also used to assess pain at rest and under palpation as well as the level of inflammation.
On D0 at approximately 2 hours before surgery the Examining Veterinarian performed a physical examination and the clinical assessment of pain and inflammation to determine the basal scores. After surgery pain and inflammation were assessed at six examination time points: t1.5h, t3h, t5h (±30 minutes), t8h (±1hour), t24h and t168 (D7), when t0h corresponded to the end of surgery (extubation).
Clinical assessment of pain and inflammation included assessments of vocalization, attention to wound area, mobility, reaction to pressure at the wound area, general behaviour as well as activity and posture as per SFGCMPS. In addition, pain at rest and after palpation as well as the level of inflammation were assessed at the same time points by VAS ranging from 0 (no pain) to 100 (severe pain manifested by vocalization, aggression, and refusal to allow examination) and from 0 (no inflammation) to 100 (major inflammation as local heat, redness or paresis of the affected area).
Statistical Analysis was performed by use of commercially available software (SigmaPlot for Windows version 13.0). The area under the curve (AUC) was calculated for observable pain during the initial 8 and 24 hours, and it was considered as the primary efficacy variable. All analyses applied a two-sided significance level α = 0.05 and a power β = 80%. Demographic and baseline data were compared using the Mann-Whitney U test. Gender was compared with the Fisher exact probability test in contingency tables. Efficacy variables were analysed by repeated measures ANOVA.

[2] = tested on: dogs undergoing experimental orthopaedic surgery; assay: Control of postoperative pain and inflammation after experimental orthopaedic (knee) surgery, Maquet Modified Procedure; type: in vivo, Beagle dogs
Experimental: The study was performed with 6 clinically healthy Beagle dogs with similar age and weight that were experimentally subjected to knee surgery (repair of cranial cruciate ligament rupture). […] All surgeries were conducted under the same preoperative, intraoperative and postoperative protocols and performed by the same surgeon. A highly standardized surgical technique, Maquet Modified Procedure (MMP) (12) was implemented.
For each dog the study lasted 17 days, including a 7-day acclimatization period. On day D-1 (approximately 24h before the intervention) the five dogs in the TG received a single oral dose (8 mg/kg) of the TP, the one dog in the CG received a single subcutaneous dose (0.1 mg/kg) of the RP. […] On day D0 all dogs underwent knee surgery in the right knee. From day D1 up to day D10 dogs were closely examined and signs of pain and discomfort were blindly evaluated and rated using the Short Form of the Glasgow Composite Pain Scale (SFGCPS) ranging from 0 to 24 (13 and http://www.newmetrica.com/cmps/). On day D-1 dogs were also examined to rule out signs of pain or discomfort.

[3] = tested on: dogs undergoing orthopaedic surgery; assay: Non-inferiority field study of postoperative pain and inflammation after orthopaedic surgery, meloxicam-controlled (SFGCMPS, VAS); type: in vivo
Text: The study was a non-inferiority, multicentre, prospective, parallel-controlled, randomized and blinded field study.
Thirty-two dogs of different breed, age and weight presenting at the veterinary practice for orthopaedic surgery were included.
Agents with analgesic effect were permitted as premedication. However, intraoperative or postoperative analgesia were not permitted.
For each dog the study lasted twelve days. Two days before surgery, all animals were weighed and underwent a thorough physical examination with clinical pathology to confirm the good health status of the animals before inclusion. Day 0 (D0) was the day dogs underwent surgery and t0h corresponded to the end of surgery (extubation). The physical examination was repeated on D0, before surgery (t-2h) and before dispatch (t8h) and again at t24h (D1) and t168 (D7) post-surgery. Clinical assessments of pain and inflammation were blindly performed on D0, before surgery (t-2h) and again at t1.5h, t3h, t5h, t8h, t24h (D1) and t168h (D7) post-surgery. The global efficacy of treatments was assessed on D7. From day D1 to day D7 post-surgery, the owners assessed the dog's wellbeing.
The primary endpoint for efficacy comprises the sum of scores for the SFGCMPS scale, which was assessed at different time points by the Investigator.
From day D1 to D7, owners daily assessed the dogs' wellbeing using scales for: • Demeanour (0=normal; 1=slightly modified; 2=moderately modified; 3=markedly modified and 4=severely modified). • Mobility (0=normal; 1=slightly impaired; 2=moderately impaired; 3=markedly impaired and 4=severely impaired). • Quality of analgesia as very satisfactory (=1); satisfactory (=2); not very satisfactory (=3); not at all satisfactory (=4).
Blood samples were collected from all animals before inclusion (≤ D-2), for routine pre-surgery blood profile. Potential adverse effects related to the products were also recorded.
Statistical Analysis was performed by use of commercially available software. All analyses used a two-sided significance level α = 0.05. […]

[4] = 1.5h after surgery, 8 mg/kg oral on D-1
[5] = 3h after surgery, 8 mg/kg oral on D-1
[6] = 5h after surgery, 8 mg/kg oral on D-1
[7] = 8h after surgery, 8 mg/kg oral on D-1
[8] = 24h after surgery, 8 mg/kg oral on D-1

`NS(=O)(=O)c1ccc(N2N=C(C(F)(F)F)CC2c2ccc(F)cc2F)cc1` (centres unmarked) [E-6087, enflicoxib] was tested, and the “values of AUC for the first 24 hours after surgery compared with Placebo” value ([1]; 8 mg/kg oral on D-1, not statistically significant (p=0.266)) was “almost half”, the “AUC for the first 8 hours compared with Placebo” value ([1]; 8 mg/kg oral on D-1, p=0,033) was “statistically significant lower values” and the “Attention to wound (SFGCMPS average value)” value (“Attention to wound” for short) [1, 4] was 0. For the same compound, the “Demeanour (SFGCMPS average value)” value [1, 4] was 0.83, the “Mobility (SFGCMPS average value)” value [1, 4] was 0.33 and the “Posture/Activity (SFGCMPS average value)” value [1, 4] was 0.17. For the same compound, the “Pressure on wound (SFGCMPS average value)” value (“Pressure on wound” for short) [1, 4] was 0.33, the “Total SFGCMPS (average value)” value [1, 4] was 1.92 and the “Vocalization (SFGCMPS average value)” value [1, 4] was 0.25. For the same compound, the “Attention to wound” value [1, 5] was 0.08, the “Demeanour (SFGCMPS average value)” value [1, 5] was 0.50 and the “Mobility (SFGCMPS average value)” value [1, 5] was 0. For the same compound, the “Posture/Activity (SFGCMPS average value)” value [1, 5] was 0.08, the “Pressure on wound” value [1, 5] was 0.42 and the “Total SFGCMPS (average value)” value [1, 5] was 1.33. The “Vocalization (SFGCMPS average value)” value [1, 5] was 0.25, the “level of inflammation (VAS 0-100) compared with Placebo” value ([1]; 3 hours after surgery, p=0.021) was “Placebo was greater than for the group treated with E-6087” and the “Attention to wound” value [1, 6] was 0.08. For the same compound, the “Demeanour (SFGCMPS average value)” value [1, 6] was 0.17, the “Mobility (SFGCMPS average value)” value [1, 6] was 0 and the “Posture/Activity (SFGCMPS average value)” value [1, 6] was 0. The “Pressure on wound” value [1, 6] was 0.50, the “Total SFGCMPS (average value)” value [1, 6] was 0.75 and the “Vocalization (SFGCMPS average value)” value [1, 6] was 0. For the same compound, the “Attention to wound” value [1, 7] was 0, the “Demeanour (SFGCMPS average value)” value [1, 7] was 0 and the “Mobility (SFGCMPS average value)” value [1, 7] was 0. The “Posture/Activity (SFGCMPS average value)” value [1, 7] was 0, the “Pressure on wound” value [1, 7] was 0.67 and the “Total SFGCMPS (average value)” value [1, 7] was 0.50. For the same compound, the “Vocalization (SFGCMPS average value)” value [1, 7] was 0, the “Attention to wound” value [1, 8] was 0 and the “Demeanour (SFGCMPS average value)” value [1, 8] was 0. For the same compound, the “Mobility (SFGCMPS average value)” value [1, 8] was 0, the “Posture/Activity (SFGCMPS average value)” value [1, 8] was 0 and the “Pressure on wound” value [1, 8] was 0.50. The “Total SFGCMPS (average value)” value [1, 8] was 0.50, the “Vocalization (SFGCMPS average value)” value [1, 8] was 0 and the “AUC0→24h (SFGCMPS, observable pain)” value ([1]; first 24 hours after surgery, 8 mg/kg oral on D-1, primary efficacy variable) was 16,0±15. The “Total scores for SFGCMPS at each time point compared with Placebo” value ([1]; significant only at 1.5, 3 and 5 hours (p <0,001, 0.007 and 0.042)) was “always lower”, the “alleviating pain and inflammation after soft tissue surgery” value ([1]; single dose of 8 mg/kg) was “effective” and the “need of rescue analgesia” value ([2]; 10 days follow up period) was “None of the animals needed rescue analgesia”. For the same compound, the “potential adverse effects related to product administration” value ([2]; single oral dose 8 mg/kg on D-1) was “No potential adverse effects related to product administration were recorded”, the “analgesic agent in the postoperative period after orthopaedic surgery” value ([2]; single oral dose 8 mg/kg on D-1, SFGCPS 0-24, D1 to D10) was “effective” and the “level of inflammation (VAS 0-100) compared with meloxicam” value ([3]; at 3h, p= 0.025) was “lower values”. For the same compound, the “SFGCMPS (AUC), average value” ([3]; initial 24 hours, TG: E-6087 8 mg/kg oral on D-1, CG: meloxicam 0.2 mg/kg s.c. or i.v. on D0, then 0.1 mg/kg oral daily D1 to D7, p=0.7962) was 95.50±57.70 and the “SFGCMPS at each time point compared with CG” value ([3]; no statistically significant differences at any time point) was “most values were lower”.
